Assay results published in patent US6472541B2, “Protecting groups with increased photosensitivities” (The Regents of the University of California, priority 1998, dated 2002).
Where a name gives a salt, the structure may show the parent alone. Marks after values point to notes of the source that are not given here.

Legend:
[1] = One-photon photolysis quantum efficiency (UV irradiation, HPLC analysis); type: physicochemical; settings: 365 nm
Description: (§1) The electronic absorption and emission properties of the compounds were measured and the stability of the compounds toward hydrolysis in the dark was tested. Stability in the dark can be used to help identify photolabile protecting groups that can be used in a variety of different conditions. Specifically, the quantum efficiencies for one-photon excitation and rates of hydrolysis in the dark were determined.
[…] The duration of each irradiation period was controlled by an electronic shutter. Between each irradiation, a small aliquot (10 μL) of the solution was removed for analysis by reversed phase HPLC with a Betabasic-18 column eluted with a isocratic mixture of 60% acetonitrile and water containing 0.1% trifluoracetic acid at a flow rate of 0.8 mL/min, using absorbance detection at 325 nm. […] […] Quantum efficiencies were calculated as (Iσt90%)^−1, where I is the irradiation intensity in einsteins (cm^−2s^−1), σ is the decadic extinction coefficient in cm^2mol^−1 (10^3 times ε, the usual extinction coefficient in M^−1cm^−1), and t90% is the irradiation time in seconds for 90% conversion to product. […] Dark hydrolysis rates were measured similarly except without illumination.

[2] = Electronic absorption and emission properties; type: physicochemical
Description: Generally, chemicals and solvents were used directly as received unless otherwise noted. Acetonitrile, chloroform and dichloromethane were dried over 4A molecular sieves. Proton magnetic resonance spectra (^1H NMR) were recorded on a Gemini 200 MHz spectrometer (Varian; Palo Alto, Calif.) and reported in ppm (δ) downfield from tetramethylsilane with residual solvent peaks as the internal standards. Ultraviolet spectra were recorded on a Cary 3E UV-Visible spectrophotometer (Varian, Palo Alto, Calif., USA). Fluorescence spectra were recorded on a Fluorolog spectrofluorometer (SPEX; Edison, N.J., USA). Mass spectra were recorded on a electrospray mass spectrometer (5989B, Hewlett-Packard; Palo Alto, Calif., USA). Thin layer chromatography (TLC) and column chromatography were performed on precoated silica gel 60F-254 plates and 230-400 mesh silica gel 60 respectively (EM Separations; Gibbstown, N.J., USA). All manipulations of compounds sensitive to near ultraviolet light were performed under an orange safety lamp.
as §1

[3] = In vitro measurements of two-photon uncaging and fluorescence cross-sections; type: physicochemical; settings: pH 7.2
Description: Measurements of cross-sections for two-photon uncaging were carried out in microcuvettes with cylindrical cavities having a 1 cm path length and 20 μL total volume (Type 26F, Starna). Femtosecond infrared pulses from a mode-locked titanium-sapphire laser (Spectra-Physics TSUNAMI, pumped by a Spectra-Physics MILLENNIUM) were aimed along the axis of the sample chamber and focused in its center with a 25 mm focal length lens (06LXP003/076, Melles Griot, Irvine, Calif.) optimized for infrared lasers. The pulse parameters were estimated by replacing the caged compound by a solution of fluorescein, a reference compound of known fluorescence quantum yield Qf2 (0.9) and two-photon absorbance cross-section δaF (30 and 38 GM at 740 and 800 nm respectively). The time-averaged fluorescence <F(t)>collected by the detector is given by equation (1)
<F(t)>=0.5φQf2δaFCF<I0^2(t)>∫S^2(r)dV (1)
where φ is the collection efficiency of the detector, CF is the concentration of fluorescein, <I0^2(t)> is the mean squared light intensity, S(r) is a unitless spatial distribution function, and the integral is over the volume of the microcuvette. The fluorescence emitted at right angles to the laser beam was measured through a 535 nm bandpass filter in front of a silicon photodiode radiometer (IL1700, International Light). The collection efficiency φ was estimated as Ay/(4πR^2n^2), where A is the area of the detector (0.38 cm^2), y is the fraction of the integrated emission spectrum transmitted by the interference filter (0.377), measured separately in a spectrofluorometer, R is the distance from the center of the cuvette to the detector (3.83 cm), and n is the refractive index of water (1.333). For photolysis of a caged compound or substrate, the number NP of molecules of product formed per unit time is (eq. 2):
NP=0.5Qu2δaSCS<I0^2(t)>∫S^2(r)dV (2)
where Qu2, δaS, and CS are the quantum efficiency for two-photon uncaging, absorbance cross-section, and concentration of the substrate, respectively. NP was measured by HPLC sampling of the microcuvette as for the one-photon photolysis. The uncaging action cross-section δu2 (≡Qu2δaS) can therefore be estimated by (eq. 3): [formula]
Similarly, when the substrate is also fluorescent, its two-photon fluorescence action cross-section δf2S (≡Qf2SδaS) can be estimated as (eq. 4): [formula]
Here the subscripts S and F distinguish values for the substrate and for the fluorescein reference. If one assumes that one- and two-photon quantum efficiencies are the same, then δu2/Qu1 and δf2S/Qf1S should both equal δaS. In fact, the former values are typically about twice the latter. All of them are directly proportional to the assumed value of Qf2 for fluorescein.

[4] = test system: rat cortical neurons; test: One-photon UV uncaging of caged glutamate on brain slices, neuronal responses; type: cell-based; settings: one-photon UV uncaging at 365 nm, 10 mW, average
Description: The photolabile protecting groups can be uncaged by one-photon or two-photon photolysis. One-photon ultraviolet uncaging experiments were carried out on brain slices. In particular, compound 7 was used to deliver glutamate to rat cortical neurons. One-photon UV uncaging of caged glutamate compound at 365 nm released the glutamate. Neuronal responses were measured after directly stimulating cells as described in Sawatari and Callaway, Nature 380:442-446 (1996). The cells were exposed to compound 7 (Bhc-Glu) or γ-(α-carboxy-2-nitrobenzyl)glutamate, trifluoroacetate salt (compound 1, CNB-glutamate). The one-photon uncaging was carried out as described in FIG. 1 depicts the lower power needed to uncage compound 7 (Bhc-Glu) in the neuron sample in comparison to compound 1 (alpha-carboxy nitrobenzyl-caged glutamate, CNB-Glu). At 10 mW the compound 7-stimulated neurons respond, on average, at amplitudes 80% of their maximum, while compound 1-stimulated neurons are responding at less than 20% of their maximum amplitudes.

[5] = Mechanism of photolysis (triplet state lifetime); type: physicochemical
Excerpt: The halogenated coumarin derivatives have good dark stability, and high one-photon and two-photon uncaging efficiencies. Without being bound to any particular theory, halogenation of the coumarin may have increased the two-photon cross-sections by lowering the pKa of the chromophore below physiological pH and promoting formation of the more strongly absorbing anion. Also, the heavy atoms may promote intersystem crossing to the triplet, which is believed to be the photochemically reactive state. […] The mechanism of photolysis of compound 7 and compound 23 indicate that the solvolysis occurs via the triplet state with a lifetime of about 1 μs. […] Although compound 6 had the highest cross-section, its photolysis was complicated by multiple secondary photoproducts. The monobromo compound (compound 5) was much more tractable and easily formed caged compounds.

[6] = In vitro measurements of two-photon uncaging and fluorescence cross-sections; type: physicochemical; settings: measured at 780 nm on an independent apparatus
[7] = test system: brain slices; test: Two-photon infrared uncaging on brain slices, whole-cell recordings
Description: A map was created where the brightness at each picture element was proportional to the maximum current recorded with the laser focused at that position.
Two-photon infrared uncaging on brain slices was also carried out. […] The stream of pulses from the Ti:sapphire laser was raster-scanned across cell bodies and dendrites.

Compound | Qu1 Quantum efficiency for uncaging with one-photon excitation at 365 nm [1] | εQu1 One-photon action cross section (product of molar absorptivity and photolysis quantum yield) at 365 nm [1] [M⁻¹ cm⁻¹] | Qf1 Quantum efficiency for fluorescence with one-photon excitation [2] | λem [2] [nm] | ε Molar Absorptivity at 365 nm [2] | ε Molar Absorptivity at 400 nm ([2]; 400 nm) | λmax Wavelength of peak absorbance ([2]; pH 7.2) [nm] | ε Molar absorptivity at absorbance peak ([2]; pH 7.2, at absorbance peak) | δu (740 nm) uncaging action cross-section for two-photon excitation ([3]; 740 nm) | δu (800 nm) uncaging action cross-section for two-photon excitation ([3]; 800 nm) | Neuron response amplitude, percent of maximum amplitude [4] | Lifetime of triplet state through which solvolysis occurs [5] | δf fluorescence action cross-section for two-photon excitation [6] | Response to laser scans after application of caged compound ([7]; Ti:sapphire laser raster-scanned across cell bodies and dendrites) | Entry into the cell ([7]; photolysis map of neuron) | Change in holding current on application of caged compound (intrinsic agonist activity) ([7]; whole-cell recordings, 15 cells, before photolysis)
O=C(O)CC[C@H](NC(=O)OCc1cc(=O)oc2cc(O)c(Br)cc12)C(=O)O [Compound 7, N-(6-Bromo-7-hydroxycoumarin-4-yl)methoxycarbonyl glutamate] | 0.019 | 329 | 0.38 | 474 | 17,300 M^−1cm^−1 | 5,400 M^−1cm^−1 | 368 | 17,470 M^−1cm^−1 | 0.98 ± 10^−50 cm^4s/photon | 0.37 ± 10^−50 cm^4s/photon | 80% | about 1 μs | 2.2* 10^−50 cm^4s/photon | scans evoked inward currents | did not enter the cell | did not cause detectable changes in holding current
NC(CCC(=O)OC(C(=O)O)c1ccccc1[N+](=O)[O-])C(=O)O (stereo not drawn) [Compound 1, γ-(α-carboxy-2-nitrobenzyl)glutamate, trifluoroacetate salt, reference compound] | 0.14 | 25 |  |  | 180 M⁻¹ cm⁻¹ |  |  |  |  |  | less than 20% |  |  |  |  | 
